Laboratory results from patent US12384746B2, “Physics-driven discovery of novel small therapeutic compounds for use as a BCL-2 inhibitor” (BAHCESEHIR UNIVERSITESI, priority 2020, dated 2025).
Peptide text beside a SMILES is read from it. * marks the point of attachment. Boc = CC(C)(C)OC(=O)*

System: HCT-116 cells
Assay: MTT cell proliferation assay on HCT-116 cells
Assay type: cell-based
Experimental: For cell culture experiments various cancer cell lines, HCT-116 colon cancer, U87-MG glial tumor, MCF7 breast cancer cell lines were used. Cells were seeded with high glucose DMEM medium (Biosera) supplemented with 10% FBS (Gibco) and 1× penicillin/streptomycin (Multicell). Twenty-four hours prior to molecule treatment, 10,000 cells were seeded into each well of 24-well cell culture plates. Molecules were used by preparing 4 mM stock solution in DMSO (Amresco). For molecule treatment, molecule stock solutions were diluted in DMEM with 10% FBS and added onto cells in each corresponding well. Final concentration of vehicle DMSO was 2% at maximum. […] We calculated the number of cells to be seeded to make sure that none of the cells reaches more than 60% confluency during the treatment period, as higher plate confluency levels would slow down cell proliferation independently from the molecule treatment.
Values of half-maximal inhibitory concentration were (IC50) determined by MTT cell proliferation assays. […] 570 nm absorbance values were recorded and IC50 values were calculated by dose response—inhibition curves and nonlinear regression analysis on GraphPad Prism 8 software. […] Following the initial incubation day, molecules were added and after incubation with MTT at 37° C. for 4 hours, formazan was solubilized with DMSO (Sigma-Aldrich, St. Louis, USA) and absorbance was measured at 570 nm. […]

## CCC(C)C(NC(=O)C(Cc1c[nH]c2ccccc12)NC(=O)OC(C)(C)C)C(=O)NC(CC(C)C)C(N)=O (stereo not drawn) [compound of formula I] (Boc-Trp-Ile-Leu-NH2; configuration not given here)
HCT-116 cells, MTT assay, FIG. 1
  proliferation of HCT-116 cells compared to vehicle group: reduced proliferation and apoptotic cell structures
Homo sapiens, 72 h, HCT-116 colon cancer cells, single treatment, three days, 570 nm absorbance, read-out: IC50 (half-maximal inhibitory concentration), MTT cell proliferation
  IC50: 17 µM
